From PubChem BioAssay (NCI)
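In this assay, cells in 96-well plates receive the compound at five concentrations for 48 hours. Endpoints are linearly interpolated between the surrounding concentrations. At the GI50, growth is halved. TGI is the concentration that stops growth completely.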

Legend:
Experiment in all cases: NCI tumour cell line growth inhibition, 48 h
SK-MEL-28 melanoma = system: SK-MEL-28 melanoma
LOX IMVI melanoma = system: LOX IMVI melanoma
SF-295 CNS = system: SF-295 CNS
EKVX NSCLC = system: EKVX NSCLC
SK-OV-3 ovarian = system: SK-OV-3 ovarian
PC-3 prostate = system: PC-3 prostate
DU-145 prostate = system: DU-145 prostate
MDA-MB-435 = system: MDA-MB-435
SNB-75 CNS = system: SNB-75 CNS
A498 renal = system: A498 renal
786-0 renal = system: 786-0 renal
SF-268 CNS = system: SF-268 CNS
NCI-H460 lung = system: NCI-H460 lung
T-47D breast = system: T-47D breast
SK-MEL-5 melanoma = system: SK-MEL-5 melanoma
HL-60(TB) leukemia = system: HL-60(TB) leukemia
NCI-H226 lung = system: NCI-H226 lung
SW-620 colon = system: SW-620 colon
OVCAR-8 ovarian = system: OVCAR-8 ovarian
A549 NSCLC = system: A549 NSCLC
NCI-H522 lung = system: NCI-H522 lung
UACC-257 melanoma = system: UACC-257 melanoma
HOP-62 NSCLC = system: HOP-62 NSCLC
HS 578T breast = system: HS 578T breast
SNB-19 CNS = system: SNB-19 CNS
UO-31 renal = system: UO-31 renal
KM12 colon = system: KM12 colon
OVCAR-5 ovarian = system: OVCAR-5 ovarian
SR leukemia = system: SR leukemia
SF-539 CNS = system: SF-539 CNS
HCT-15 colon = system: HCT-15 colon
SN12C renal = system: SN12C renal
K-562 leukemia = system: K-562 leukemia
U251 CNS = system: U251 CNS
OVCAR-3 ovarian = system: OVCAR-3 ovarian
MDA-MB-231 breast = system: MDA-MB-231 breast
NCI-H23 lung = system: NCI-H23 lung
OVCAR-4 ovarian = system: OVCAR-4 ovarian
CCRF-CEM leukemia = system: CCRF-CEM leukemia
MALME-3M melanoma = system: MALME-3M melanoma
TK-10 renal = system: TK-10 renal
NCI/ADR-RES ovarian = system: NCI/ADR-RES ovarian
HT29 colon = system: HT29 colon
HOP-92 NSCLC = system: HOP-92 NSCLC
ACHN renal = system: ACHN renal
RPMI-8226 leukemia = system: RPMI-8226 leukemia
M14 melanoma = system: M14 melanoma
HCC-2998 colon = system: HCC-2998 colon
MCF7 breast = system: MCF7 breast
HCT-116 colon = system: HCT-116 colon
CAKI-1 renal = system: CAKI-1 renal
UACC-62 melanoma = system: UACC-62 melanoma
BT-549 breast = system: BT-549 breast
IGROV1 ovarian = system: IGROV1 ovarian
MOLT-4 leukemia = system: MOLT-4 leukemia
COLO 205 colon = system: COLO 205 colon
MDA-N = system: MDA-N
SK-MEL-2 melanoma = system: SK-MEL-2 melanoma

Cc1ccc2c(=O)cc(-c3ccc4ccccc4c3)[nH]c2n1
TGI (SK-MEL-28 melanoma): > 100 µM
TGI (LOX IMVI melanoma): 39.6 µM
GI50 (SF-295 CNS): 3.8 µM
TGI (SF-295 CNS): 39.6 µM
TGI (EKVX NSCLC): > 100 µM
TGI (SK-OV-3 ovarian): > 100 µM
GI50 (PC-3 prostate): 2.62 µM
TGI (PC-3 prostate): 9.61 µM
TGI (DU-145 prostate): > 100 µM
GI50 (MDA-MB-435): 1.57 µM
TGI (MDA-MB-435): 4.16 µM
TGI (SNB-75 CNS): 14.6 µM
TGI (A498 renal): 15.5 µM
TGI (786-0 renal): > 100 µM
TGI (SF-268 CNS): > 100 µM
GI50 (NCI-H460 lung): 3.82 µM
TGI (NCI-H460 lung): > 100 µM
TGI (T-47D breast): > 100 µM
GI50 (SK-MEL-5 melanoma): 3.3 µM
TGI (SK-MEL-5 melanoma): 12.7 µM
TGI (HL-60(TB) leukemia): 4.18 µM
TGI (NCI-H226 lung): 98.4 µM
TGI (SW-620 colon): > 100 µM
TGI (OVCAR-8 ovarian): > 100 µM
TGI (A549 NSCLC): > 100 µM
TGI (NCI-H522 lung): 20.5 µM
TGI (UACC-257 melanoma): > 100 µM
TGI (HOP-62 NSCLC): > 100 µM
TGI (HS 578T breast): 20 µM
TGI (SNB-19 CNS): > 100 µM
TGI (UO-31 renal): > 100 µM
TGI (KM12 colon): 65.4 µM
TGI (OVCAR-5 ovarian): > 100 µM
TGI (SR leukemia): 5.59 µM
TGI (SF-539 CNS): 54.1 µM
TGI (HCT-15 colon): > 100 µM
TGI (SN12C renal): > 100 µM
TGI (K-562 leukemia): 13 µM
GI50 (U251 CNS): 4.57 µM
TGI (U251 CNS): > 100 µM
GI50 (OVCAR-3 ovarian): 3.59 µM
TGI (OVCAR-3 ovarian): > 100 µM
TGI (MDA-MB-231 breast): > 100 µM
TGI (NCI-H23 lung): 28.7 µM
TGI (OVCAR-4 ovarian): 93.2 µM
TGI (CCRF-CEM leukemia): 14.6 µM
TGI (MALME-3M melanoma): > 100 µM
TGI (TK-10 renal): > 100 µM
TGI (NCI/ADR-RES ovarian): 48.5 µM
TGI (HT29 colon): > 100 µM
TGI (HOP-92 NSCLC): 7.7 µM
TGI (ACHN renal): > 100 µM
TGI (RPMI-8226 leukemia): 19.5 µM
TGI (M14 melanoma): > 100 µM
TGI (HCC-2998 colon): 68.6 µM
TGI (MCF7 breast): 37.9 µM
GI50 (HCT-116 colon): 4 µM
TGI (HCT-116 colon): 87.9 µM
GI50 (CAKI-1 renal): 5.41 µM
TGI (CAKI-1 renal): > 100 µM
TGI (UACC-62 melanoma): 24.1 µM
TGI (BT-549 breast): > 100 µM
TGI (IGROV1 ovarian): 82.7 µM
TGI (MOLT-4 leukemia): 29.1 µM
TGI (COLO 205 colon): 5.55 µM
GI50 (MDA-N): 1.94 µM
TGI (MDA-N): 4.69 µM
TGI (SK-MEL-2 melanoma): > 100 µM
